Data as given in PMC12227560, “Total synthesis of a sorrentanone ester library and evaluation of its antimicrobial potential” (Scientific Reports, 2025).
In brackets after ≈: the same amount, converted by molar mass. Like-named read-outs stand apart in the source and are kept apart here.

How the values were obtained:
[1] = tested on: S. aureus MRSA; test: Antimicrobial broth micro-dilution assay (MIC); format: cell-based; settings: Staphylococcus aureus, read-out: Minimum inhibitory concentration (MIC)
Source text: (§1) 3. Bioactivity and Toxicity Assays
(§2) Antimicrobial assay: According to the standard broth micro-dilution assays, following the Standards of European Committee on Antimicrobial Susceptibility Testing (v 7.3.1: Method for the determination of broth dilution minimum inhibitory concentrations of antifungal agents for yeasts) for Candida spp., and according to the standard broth micro-dilution assays, recommended by the National Committee for Clinical Laboratory Standards (M07-A8) for bacteria MIC values of compounds were determinate. Compounds were dissolved in DMSO at a concentration of 50 mg/mL, and the highest tested concentration was 250 µg/mL. The inoculums were 1x10^5 colony forming units (CFU/mL), for Candida species, and bacteria species, 5x10^5 colony forming units (CFU/mL). The MIC value was recorded as the lowest concentration that inhibited the growth after 24 h at 37 °C. Additionally, 5 µL from each well of 96 well plates was transferred to Luria Agar (LA) plates for bacteria and Sabouraud agar (SAB) plates for Candida spp. and incubated for an additional 24 h at 37 °C, to determine MBC (Minimum bactericidal/fungicidal concentration) values. In Table 1. Are labeled compounds showing a difference in MBC and previously determined MIC values. […]

[2] = tested on: S. aureus ATCC25923; test: Antimicrobial broth micro-dilution assay (MIC); format: cell-based; settings: Staphylococcus aureus, read-out: Minimum inhibitory concentration (MIC)
Source text: as §1, §2

[3] = tested on: B. subtilis ATCC6633; test: Antimicrobial broth micro-dilution assay (MIC); format: cell-based; settings: Bacillus subtilis, read-out: Minimum inhibitory concentration (MIC)
Source text: as §1, §2

[4] = tested on: E. coli NCTC9001; test: Antimicrobial broth micro-dilution assay (MIC); format: cell-based; settings: Escherichia coli, read-out: Minimum inhibitory concentration (MIC)
Source text: as §1, §2

[5] = tested on: C. albicans ATCC10231; test: Antimicrobial broth micro-dilution assay (MIC); format: cell-based; settings: Candida albicans, read-out: Minimum inhibitory concentration (MIC)
Source text: as §1, §2

[6] = tested on: P. aeruginosa ATCC27853; test: Antimicrobial broth micro-dilution assay (MIC); format: cell-based; settings: Pseudomonas aeruginosa, read-out: Minimum inhibitory concentration (MIC)
Source text: as §1, §2

[7] = tested on: human lung fibroblast cell line (MRC-5); test: Cytotoxicity evaluation by MTT assay; format: cell-based
Source text: as §1
Antimicrobial assay: According to the standard broth micro-dilution assays, following the Standards of European Committee on Antimicrobial Susceptibility Testing (v 7.3.1: Method for the determination of broth dilution minimum inhibitory concentrations of antifungal agents for yeasts) for Candida spp., and according to the standard broth micro-dilution assays, recommended by the National Committee for Clinical Laboratory Standards (M07-A8) for bacteria MIC values of compounds were determinate. Compounds were dissolved in DMSO at a concentration of 50 mg/mL, and the highest tested concentration was 250 µg/mL. The inoculums were 1x10^5 colony forming units (CFU/mL), for Candida species, and bacteria species, 5x10^5 colony forming units (CFU/mL). The MIC value was recorded as the lowest concentration that inhibited the growth after 24 h at 37 °C. Additionally, 5 µL from each well of 96 well plates was transferred to Luria Agar (LA) plates for bacteria and Sabouraud agar (SAB) plates for Candida spp. and incubated for an additional 24 h at 37 °C, to determine MBC (Minimum bactericidal/fungicidal concentration) values. In Table 1. Are labeled compounds showing a difference in MBC and previously determined MIC values.
Cytotoxicity evaluation: Antiproliferative activity was tested by MTT assay (3-(4,5-dimethylthiazol-2-yl)-2,5-diphenyltetrazoliumbromide) on a human lung fibroblast cell line (MRC-5; ATCC collection). Pre-grown (24 h) cell monolayers (1x10^4 cells per well) in RPMI 1640 medium supplemented with 100 μg/mL streptomycin, 100 U/mL penicillin, and 10% (v/v) FBS (all from Sigma, Munich, Germany) containing the tested compounds at concentrations ranging from 5 to 20 μg/mL were incubated in a humidified atmosphere of 95% air and 5% CO2 at 37 °C for 48 h. The cell viability (extent of MTT reduction) was measured spectrophotometrically at 540 nm using the Epoch 2000 multiplate reader, and the cell survival was expressed as a percentage of the control (untreated cells). Cytotoxicity was expressed as the concentration of the compound inhibiting cell growth by 50% (IC 50). […]

[8] = tested on: two S. aureus strains and B. subtilis ATCC6633; test: Antimicrobial assay, Gram-positive bacteria; format: cell-based; settings: from MIC values
Source text: as §1, §2

[9] = tested on: Caenorhabditis elegans; test: In vivo toxicity C. elegans survival assay; settings: C. elegans model
Method: 3. Bioactivity and Toxicity Assays […]
Compounds were dissolved in DMSO at a concentration of 50 mg/mL, and the highest tested concentration was 250 µg/mL. […]
In vivo toxicity C. elegans assay: The C. elegans survival assay was carried out as described previously with some modifications. 8 In brief, synchronized worms (L4 stage) were suspended in a medium containing 95% M9 buffer (3.0 g of KH2PO4, 6.0 g of Na2HPO4, 5.0 g of NaCl, and 1 mL of 1 M MgSO4 × 7H2O in 1 L of water), 5% LB (Luria-Bertani) broth (Oxoid, Basingstoke, UK), and 10 μg of cholesterol (Sigma -Aldrich, Munich, Germany) per mL. The experiment was carried out in 96 -well flat -bottomed microtiter plates (Sarstedt, Nümbrecht, Germany) in the final volume of 100 μL per wel l. 25 μL of this suspension of nematodes (25 –35 nematodes) were transferred to the wells of a 96 -well microtiter plate, where 50 μL of the medium was previously added. Next, 25 μL of a solvent control (DMSO) or 25 μL of a concentrated solution was added to the test wells. The final concentrations of the compounds were 50, 25, 10, and 5 µg/mL. Subsequently, the plates were incubated at 25 °C for 2 days. The fraction of dead worms was determined after 48 h by counting the number of dead worms and the total number of worms in each well, using a stereomicroscope (SMZ143-N2GG, Motic, Germany).
As a negative control experiment, nematodes were exposed to the medium containing 1% […]
Ergosterol biosynthesis assay: Ergosterol levels were measured according to the published procedure with some minor modifications. 10 Briefly, a sing le C. albicans colony from an overnight Sabouraud dextrose agar plate was used to inoculate 50 ml of Sabouraud dextrose broth containing 0.5 MIC concentrated compounds. Incubation was performed for 18 h at 37 °C on the rotary shaker at 180 rpm. Cells were harvested by centrifugation at 3000 rpm for 5 min and washed once with sterile distilled water. The net wet weight of the cell pellet was determined. Three milliliters of 25% alcoholic potassium hydroxide solution (25 g of KOH and 35 ml of sterile distill ed water, brought to 100 ml with 100% ethanol), was added to each pellet and vortex mixed for 1 min and incubated in an 85 °C water bath for 1 h. Tubes were cooled to room temperature and extraction of sterols was done with the addition of a mixture of 1 ml of sterile distilled water and 3 ml of n-heptane followed by vigorous vortex mixing for 3 min. The heptane layer was used for spectrophotometrically measuring ergosterol concentrations by scanning absorbance between 240 nm and 300 nm using Ultrospec 3300pro 573 (Amer sham Biosciences, Amersham, UK).

[10] = S. aureus MRSA, 24 h at 37 °C, highest tested concentration 250 µg/mL
[11] = S. aureus ATCC25923, 24 h at 37 °C, highest tested concentration 250 µg/mL
[12] = B. subtilis ATCC6633, 24 h at 37 °C, highest tested concentration 250 µg/mL
[13] = E. coli NCTC9001, 24 h at 37 °C, highest tested concentration 250 µg/mL
[14] = C. albicans ATCC10231, 24 h at 37 °C, highest tested concentration 250 µg/mL
[15] = P. aeruginosa ATCC27853, 24 h at 37 °C, highest tested concentration 250 µg/mL

Row | SMILES | MIC [1, 10] [µg/mL] | MIC [2, 11] [µg/mL] | MIC [3, 12] [µg/mL] | MIC [4, 13] [µg/mL] | MIC [5, 14] [µg/mL] | MIC [6, 15] [µg/mL] | cell survival ([7]; MRC-5 cells, 10 µg/mL, 48 h) | improvement of antibacterial activity compared to sorrentanone (7) [8] | in vivo toxicity (in words) [9] | MIC ([1]; MRSA, 24 h) [µg/mL] | MIC ([2]; ATCC25923, 24 h) [µg/mL] | MIC ([3]; ATCC6633, 24 h) [µg/mL] | MIC ([4]; NCTC9001, 24 h) [µg/mL] | MIC ([5]; ATCC10231, 24 h) [µg/mL] | MIC ([6]; ATCC27853, 24 h) [µg/mL] | selectivity index (SI) ([7]; cytotoxicity versus antibiotic activity, calculation not described)
1 | CCOC(=O)C1=C(C)C(=O)C(O)=C(C)C1=O [compound 29] | 62.5 (≈ 279 µM) | 62.5 (≈ 279 µM) | 15.6 (≈ 69.6 µM) | > 250 | > 250 | > 250 | – | – | – | – | – | – | – | – | – | –
2 | C#CCCCOC(=O)C1=C(C)C(=O)C(O)=C(C)C1=O [compound 40] | 62.5 (≈ 238 µM) | 31.2 (≈ 119 µM) | 31.2 (≈ 119 µM) | > 250 | 62.5 (≈ 238 µM) | > 250 | over 60% | – | – | – | – | – | – | – | – | –
3 | CCCCOC(=O)C1=C(C)C(=O)C(O)=C(C)C1=O [compound 31] | 31.2 (≈ 124 µM) | 31.2 (≈ 124 µM) | 15.6 (≈ 61.8 µM) | > 250 | > 250 | > 250 | – | – | – | – | – | – | – | – | – | –
4 | C=CCCOC(=O)C1=C(C)C(=O)C(O)=C(C)C1=O [compound 37] | 31.2 (≈ 125 µM) | 62.5 (≈ 250 µM) | 31.2 (≈ 125 µM) | > 250 | > 250 | > 250 | – | – | – | – | – | – | – | – | – | –
5 | CCCOC(=O)C1=C(C)C(=O)C(O)=C(C)C1=O [compound 30] | 62.5 (≈ 262 µM) | 62.5 (≈ 262 µM) | 15.6 (≈ 65.5 µM) | > 250 | > 250 | > 250 | – | – | – | – | – | – | – | – | – | –
6 | CN[C@H](CC(C)C)C(=O)N[C@H]1C(=O)N[C@@H](CC(N)=O)C(=O)N[C@H]2C(=O)N[C@H]3C(=O)N[C@H](C(=O)N[C@H](C(=O)O)c4cc(O)cc(O)c4-c4cc3ccc4O)[C@H](O)c3ccc(c(Cl)c3)Oc3cc2cc(c3O[C@@H]2O[C@H](CO)[C@@H](O)[C@H](O)[C@H]2O[C@H]2C[C@](C)(N)[C@H](O)[C@H](C)O2)Oc2ccc(cc2Cl)[C@H]1O [vancomycin, reference compound] | – | – | – | – | – | – | – | – | – | 0.5 (≈ 0.345 µM) | 1 (≈ 0.69 µM) | 0.4 (≈ 0.276 µM) | 125 (≈ 86.3 µM) | 50 (≈ 34.5 µM) | 125 (≈ 86.3 µM) | 200

Second part, led by results:

Row | MIC [1, 10] [µg/mL] | MIC [2, 11] [µg/mL] | MIC [3, 12] [µg/mL] | MIC [4, 13] [µg/mL] | MIC [5, 14] [µg/mL] | MIC [6, 15] [µg/mL] | SMILES | cell survival ([7]; MRC-5 cells, 10 µg/mL, 48 h) | improvement of antibacterial activity compared to sorrentanone (7) [8] | in vivo toxicity (in words) [9] | MIC ([1]; MRSA, 24 h) [µg/mL] | MIC ([2]; ATCC25923, 24 h) [µg/mL] | MIC ([3]; ATCC6633, 24 h) [µg/mL] | MIC ([4]; NCTC9001, 24 h) [µg/mL] | MIC ([5]; ATCC10231, 24 h) [µg/mL] | MIC ([6]; ATCC27853, 24 h) [µg/mL] | selectivity index (SI) ([7]; cytotoxicity versus antibiotic activity, calculation not described)
7 | 31.2 (≈ 148 µM) | 62.5 (≈ 297 µM) | 15.6 (≈ 74.2 µM) | > 250 | > 250 | > 250 | COC(=O)C1=C(C)C(=O)C(O)=C(C)C1=O [compound 28] | – | – | – | – | – | – | – | – | – | –
8 | 31.2 (≈ 124 µM) | 31.2 (≈ 124 µM) | 31.2 (≈ 124 µM) | > 250 | > 250 | > 250 | CC1=C(O)C(=O)C(C)=C(C(=O)OCC(C)C)C1=O [compound 32] | – | – | – | – | – | – | – | – | – | –
9 | 15.6 (≈ 58.6 µM) | 15.6 (≈ 58.6 µM) | 15.6 (≈ 58.6 µM) | > 250 | > 250 | > 250 | CCCCCOC(=O)C1=C(C)C(=O)C(O)=C(C)C1=O [compound 33] | – | two- to four-fold improved activity | comparatively lower in vivo toxicity | – | – | – | – | – | – | –
10 | 31.2 (≈ 126 µM) | 62.5 (≈ 252 µM) | 31.2 (≈ 126 µM) | > 250 | > 250 | > 250 | C#CCCOC(=O)C1=C(C)C(=O)C(O)=C(C)C1=O [compound 38] | – | – | – | – | – | – | – | – | – | –
11 | 31.2 (≈ 111 µM) | 31.2 (≈ 111 µM) | 7.81 (≈ 27.9 µM) | > 250 | 62.5 (≈ 223 µM) | > 250 | CCCCCCOC(=O)C1=C(C)C(=O)C(O)=C(C)C1=O [compound 35] | – | – | – | – | – | – | – | – | – | –
12 | 15.6 (≈ 58.6 µM) | 15.6 (≈ 58.6 µM) | 15.6 (≈ 58.6 µM) | > 250 | > 250 | > 250 | CC1=C(O)C(=O)C(C)=C(C(=O)OCCC(C)C)C1=O [compound 34] | – | two- to four-fold improved activity | – | – | – | – | – | – | – | –
